# Measurements reported in PMC10400562, “Label-free measurement of antimicrobial peptide interactions with lipid vesicles and nanodiscs using microscale thermophoresis” (Scientific Reports, 2023).
# Like-named read-outs stand apart in the source and are kept apart here. Non-standard residues stand in square brackets, D forms with d. Residues, ends and D or L forms follow the SMILES beside them.
# Experiments:
# [1] = test system: S. aureus ATCC 9144; assay type: cell-based; settings: for S. aureus MIC (ATCC 9144): ATCC 9144, 24 h
# Experimental: The bacterial strains used were E. coli ATCC 25922 and S. aureus ATCC 9144. Overnight cultures and MIC assays were performed in cationic-adjusted BD BBL Mueller Hinton II Broth (MHB II, 212322, Becton, Dickson and Company, Sparks, MD, USA).
# The MICs for 1–5 were determined using the CLSI M07-A9 guidelines. Working solutions were prepared in double distilled water containing max. 1% DMSO. A concentration range between 256–0.25 µg/mL was tested for each peptide. The bacterial inoculum was 1 × 10^6 cells/mL and incubated 1:1 with each test compound in a polypropylene 96-well round-bottom plate (655209, Greiner Bio-One, Kresmmuenster, Austria). Each MIC test was performed in three biological replicates, consisting of four technical replicates. Positive controls (without antibiotics) and negative controls (without bacteria) were included for each technical replicate. The reference antibiotic erythromycin was included to assure quality control. The plates were incubated for 24 h at 37 °C. The MIC value was defined as the lowest concentration of compound resulting in no visible bacterial growth.
# [2] = SPR, peptide binding to LUVs immobilized on L1 chip; settings: for Kd: SPR steady state analysis, HEPES pH 7.4, room temperature, mean ± SD of triplicates; for koff PC/PG / koff PC: SPR, 10 mM HEPES pH 7.4 100 mM NaCl, room temperature, 400 s dissociation phase; for koff PC/PG: two-population fit averaged; for koff PC: two-population fit averaged (Figueira et al.); for SPR KP, DMPC: lipid/aqueous partition coefficient from SPR steady state (Figueira et al. method), DMPC LUVs; for SPR KP, DMPC / SPR KP, DMPC/PG: HEPES pH 7.4, ± SD of triplicate fits; for SPR KP, DMPC/PG: lipid/aqueous partition coefficient from SPR steady state, 95% DMPC 5% DMPG LUVs
# Experimental: The interactions between AMPs 1–5 and LUVs were first investigated by SPR as a benchmark for the MST measurements. The data was acquired using the same lipid compositions as used in the MST data acquisition. LUVs were immobilized on an L1 chip, and an increasing concentration of AMPs was injected over them. […] The dissociation rate, koff, was calculated from the dissociation step, using the methodology presented by Figueira et al.[21], summarized in Table 2.
# DMPC and DMPC:5% DMPG vesicles were prepared by solubilising a known weight of lipid in chloroform with a small amount of methanol to assist in the dissolution of the PG lipid head groups. The chloroform stock was dried in vacuo to produce a lipid film, which was further dried for additional 3 h. The lipid film was solubilised in 10 mM TRIS buffer (pH 7.4) containing 100 mM NaCl to yield a 20 mM milky lipid stock.
# To produce the working vesicle stock, 1 mL of vesicle stock was extruded 20 times through a 0.1 µm filter using an Avanti Lipids mini-extruder. Vesicle size was confirmed using a Malvern Zetasizer Nano ZS (Malvern Panalytical Ltd, Malvern, United Kingdom).
# The SPR measurements were performed using a T200 Biacore instrument (GE Healthcare, Oslo, Norway) at room temperature. An L1 chip was covered with extruded DMPC liposomes (1 mM in 10 mM HEPES buffer pH 7.4 with 100 mM NaCl) using a flowrate of 2 µL/min for 2400 s. Chip coverage was tested by injection of 0.1 mg/mL of bovine serum albumin for 1 min at 30 µL/min, with a change of < 400 RU indicating sufficient coverage.
# The liposome surface was stabilized after each injection by three subsequent injections of 10 mM NaOH at 30 µL/min for 30 s each. Between experiments, the chip surface was cleaned by 20 mM CHAPS, 40 mM octyl-β-D-glucopyranoside and 30% ethanol in turn, with each solution injected for 1 min at 30 µL/min. The control flow cell was treated identically, with the exception that only the HEPES buffer solution was injected. The results were processed using in-house MATLAB scripts (MATLAB R2020a; scripts are available at https://github.com/MarJakubec).
# KD was obtained from a steady state analysis using the intensities at the 190 s dissociation time, using Eq. (1):[21]1 Req=cRmax/KD+c+Roff where Req is the response at the steady state equilibrium, c is the peptide concentration, Rmax is the maximum response and Roff the response offset.
# KP was obtained from same steady state affinity values using the method presented by Figuera et al., Eq. (2):[21]2 RUS/RUL=γLKPMS/MLSW/1+σγLKPSW where RUS and RUL are the relative responses of solute (peptides) and lipids respectively, γL is the molar volume of the lipids, MS and ML are the molecular mass of solute and lipid, respectively, and [S]W is the concentration of solute in water. KP and σ are obtained from fitting (with σ being lipid to solute ratio).
# For koff evaluation we have used the formalism of Figuera et al.[21] for linearization of the dissociation process, where we have identified the contribution from two different populations in the dissociation response. Koff values were then obtained by Eq. (3) and averaged by Eq. (4):3 SL(t)=αe^-koff,α^t+βe^-koff,β^t+SL,r 4 koff=αkoff,α+βkoff,β/α+β where SL is the linearized ratio of solute and lipid, α and β are individual populations, and SL,r is the retained solute fraction.
# [3] = 95% DMPC 5% DMPG LUVs on L1 chip, read-out: SPR KD, DMPC/PG
# [4] = 95% DMPC 5% DMPG LUVs on L1 chip
SMILES,S. aureus MIC (ATCC 9144) [1],"Kd [2, 3]",Kd ([2]; DMPC LUVs on L1 chip),"koff PC/PG [2, 4]",koff PC ([2]; DMPC LUVs on L1 chip),"SPR KP, DMPC [2]","SPR KP, DMPC/PG [2]","antimicrobial activity against tested strain ([1]; S. aureus ATCC 9144, statement in text)"
NCCCC[C@@H]1NC(=O)[C@H](Cc2c[nH]c3ccccc23)NC(=O)[C@H](CCCCN)NC(=O)[C@H](Cc2c[nH]c3ccccc23)NC(=O)[C@H](CCCCN)NC(=O)[C@H](Cc2c[nH]c3ccccc23)NC1=O [compound 4] (cyclo(WKWKWK)),128 µg/mL,474 ± 45 µM,712 ± 27 µM,1.32 ± 0.05 s⁻¹,0.90 ± 0.24 s⁻¹,0.53 ± 0.01 × 10^3,0.63 ± 0.03 × 10^3,–
CC(C)C[C@@H]1NC(=O)[C@@H](CCCNC(=N)N)NC(=O)[C@H](CCCCN)NC(=O)[C@H](CC(N)=O)NC(=O)[C@@H](Cc2c[nH]c3ccccc23)NC(=O)[C@H](Cc2c[nH]c3ccccc23)NC1=O [compound 5] (cyclo(LW[dW]NK[dR])),> 256 µg/mL,1030 ± 58 µM,2550 ± 493 µM,1.75 ± 0.16 s⁻¹,1.76 ± 0.12 s⁻¹,0.28 ± 0.01 × 10^3,0.40 ± 0.02 × 10^3,inactive
N=C(N)NCCC[C@@H]1NC(=O)[C@H](CCCNC(=N)N)NC(=O)[C@H](Cc2c[nH]c3ccccc23)NC(=O)[C@H](Cc2c[nH]c3ccccc23)NC(=O)[C@H](Cc2c[nH]c3ccccc23)NC(=O)[C@H](CCCNC(=N)N)NC1=O [compound 1] (cyclo(WWWRRR)),4 µg/mL,70 ± 1 µM,142 ± 35 µM,0.19 ± 0.01 s⁻¹,0.22 ± 0.02 s⁻¹,6.65 ± 0.80 × 10^3,12.71 ± 0.16 × 10^3,–
NCCCC[C@@H]1NC(=O)[C@H](CCCCN)NC(=O)[C@H](Cc2c[nH]c3ccccc23)NC(=O)[C@H](Cc2c[nH]c3ccccc23)NC(=O)[C@H](Cc2c[nH]c3ccccc23)NC(=O)[C@H](CCCCN)NC1=O [compound 3] (cyclo(WWWKKK)),32 µg/mL,112 ± 15 µM,302 ± 32 µM,0.32 ± 0.05 s⁻¹,0.48 ± 0.07 s⁻¹,2.53 ± 0.08 × 10^3,5.16 ± 0.34 × 10^3,–
N=C(N)NCCC[C@@H]1NC(=O)[C@H](Cc2c[nH]c3ccccc23)NC(=O)[C@H](CCCNC(=N)N)NC(=O)[C@H](Cc2c[nH]c3ccccc23)NC(=O)[C@H](CCCNC(=N)N)NC(=O)[C@H](Cc2c[nH]c3ccccc23)NC1=O [compound 2] (cyclo(WRWRWR)),32 µg/mL,105 ± 7 µM,318 ± 62 µM,0.48 ± 0.05 s⁻¹,0.87 ± 0.19 s⁻¹,1.30 ± 0.09 × 10^3,3.16 ± 0.15 × 10^3,–
